{"source": "paper PMC12535076", "about": "“Neurotherapeutic effects of Vutiglabridin as a Paraoxonase-2 modulator in preclinical models of Parkinson’s disease” (Molecular Neurodegeneration, 2025)", "key": {"[1]": {"target": "T1, P-glycoprotein (P-gp, MDR1) (Homo sapiens, UniProt P08183)", "T1 construct": "expressed in transfected cells; host or cells: MDCKII-hMDR1 (canine kidney cells carrying human MDR1); also parental MDCKII and Caco-2 (endogenous human P-gp)", "T1 sequence (P08183 whole entry)": "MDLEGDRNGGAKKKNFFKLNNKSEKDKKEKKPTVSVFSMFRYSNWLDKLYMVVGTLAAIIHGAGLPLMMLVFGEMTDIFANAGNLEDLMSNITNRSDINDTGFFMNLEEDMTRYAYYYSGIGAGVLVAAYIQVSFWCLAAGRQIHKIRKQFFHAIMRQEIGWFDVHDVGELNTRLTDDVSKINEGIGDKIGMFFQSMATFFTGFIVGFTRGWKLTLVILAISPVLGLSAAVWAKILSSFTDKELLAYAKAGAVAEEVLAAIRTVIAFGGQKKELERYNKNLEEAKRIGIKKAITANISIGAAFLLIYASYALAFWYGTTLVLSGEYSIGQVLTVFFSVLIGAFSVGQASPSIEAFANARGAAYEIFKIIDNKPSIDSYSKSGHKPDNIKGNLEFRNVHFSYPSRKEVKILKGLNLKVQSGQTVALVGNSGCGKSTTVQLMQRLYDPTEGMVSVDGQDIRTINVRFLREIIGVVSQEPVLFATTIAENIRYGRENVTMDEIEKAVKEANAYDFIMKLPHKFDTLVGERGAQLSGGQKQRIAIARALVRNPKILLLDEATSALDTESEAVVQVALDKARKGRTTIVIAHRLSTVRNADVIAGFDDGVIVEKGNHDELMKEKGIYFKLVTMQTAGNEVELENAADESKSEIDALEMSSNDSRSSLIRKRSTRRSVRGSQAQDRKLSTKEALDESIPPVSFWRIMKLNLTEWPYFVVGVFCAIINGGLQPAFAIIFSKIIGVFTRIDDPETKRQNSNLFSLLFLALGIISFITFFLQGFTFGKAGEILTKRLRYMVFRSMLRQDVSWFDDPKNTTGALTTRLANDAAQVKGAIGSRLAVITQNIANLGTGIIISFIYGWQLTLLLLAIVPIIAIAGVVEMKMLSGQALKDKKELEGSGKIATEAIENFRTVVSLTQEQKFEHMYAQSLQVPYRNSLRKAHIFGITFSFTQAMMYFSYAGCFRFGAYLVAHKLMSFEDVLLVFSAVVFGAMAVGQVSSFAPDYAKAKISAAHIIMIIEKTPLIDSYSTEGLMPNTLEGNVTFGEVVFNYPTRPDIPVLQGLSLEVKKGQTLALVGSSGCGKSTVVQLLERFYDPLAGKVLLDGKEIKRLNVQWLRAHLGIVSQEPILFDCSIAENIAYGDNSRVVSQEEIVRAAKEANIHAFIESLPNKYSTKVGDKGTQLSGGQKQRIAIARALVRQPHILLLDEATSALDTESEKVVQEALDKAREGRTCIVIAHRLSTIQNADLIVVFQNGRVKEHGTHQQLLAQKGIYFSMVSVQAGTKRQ", "assay": "P-glycoprotein (P-gp) efflux assay in cell monolayers", "format": "in vitro ADME", "details": "MDCKII, MDCKII-hMDR1 and Caco-2 monolayers, with and without P-gp inhibitor GF120918", "method": "P-gp efflux ratio was determined in MDCKII-hMDR1, MDCKII [61], and Caco-2 cell monolayer via LC-MS/MS analysis, in accordance with the standard FDA guideline on transporter-mediated drug interactions. 10 µM of GF120918 was used as P-gp inhibitor. The apical (A-to-B) and basolateral (B-to-A) permeability coefficient (Papp) were measured to yield the efflux ratio.\n(a) Measurement of Vuti concentration in octanol and aqueous phase (pH7.4 phosphate buffer) via HPLC. The mean value of three replicates was used, and the limit of quantification (LOQ) value was used to calculate Log D as a log of concentration in the octanol phase divided by the concentration in the aqueous phase. (b) Efflux ratios (Papp(B→A)/Papp(A→B)) of Vuti in three types of cell monolayers, with or without P-glycoprotein (P-gp) inhibitor GF120918. (c) Schematic of 14C-labeling of Vuti. Attachment to the ethoxy group is warranted because it is robustly maintained throughout metabolism. (d) Plasma radioactivity concentration in Sprague-Dawley rats after a single administration of 10 mg/kg of 14C-Vuti (n = 3)."}, "[2]": {"system": "MPTP-injected C57BL/6 mice", "assay": "MPTP-injected sub-acute PD mouse model (pole test, rotarod, TH immunohistochemistry)", "format": "in vivo", "details": "MPTP mice", "method": "(§1) Animals were allowed at least 1 week of acclimatization before being subjected to the study and were housed in a regulated environment with a 12-h/12-h light/dark cycle. Food and water were provided ad libitum. The animal experiment was carried out in accordance with the National Institutes of Health Guide for the Care and Use of Laboratory Animals (NIH Publications No. 80–23; revised 1996). All procedures for handling mice were carried out in accordance with “Principles of Laboratory Animal Care” and the Animal Care and Use guidelines of Kyung Hee University, Seoul, Korea (KHSASP-20-163).\n(§2) MPTP was dissolved in distilled water and injected intraperitoneally for five days from day 10 of the 21-day experiment period. Vuti or rasagiline was administered via oral gavage for 21 days. Vehicles for both Vuti and MPTP (distilled water) were administered to all mice. Mice were randomly divided for all studies. For the first set of studies shown in Fig. 3, each group consisted of 5 animals.\nTo determine forelimb and hindlimb motor coordination and balance, we performed the rotarod test as described previously. Also, the pole test was performed to measure bradykinesia. For the rotarod test, the animals were pre-trained on the rotating bar of a rotarod unit set (LE 8500, Letica, Spain) on days 18 and 19 before the test on day 20. During pre-training, three trials per day were performed (5 rpm rotation speed on the first day, 15 rpm rotation speed on the second day). Mice were kept on the rotating bar (7.3-cm diameter) for 5 min on each trial. On day 20, the time spent on the rotating bar at 20 rpm, which was defined as the latent period, was recorded. Performance was recorded as 300 s if the latent period exceeded 300 s. Mice had at least 5 min of rest between trials to reduce stress and fatigue. Each animal underwent three test trials, and the mean of the test results was subjected to statistical analysis. For the pole test, mice were held on the top of the pole (diameter 8 mm, height 55 cm, with a rough surface). The time to land down and place four fee on the floor was recorded as the time for locomotion activity (T-LA).\nOn day 21, mice were anesthetized with sodium pentobarbital (50 mg/kg intraperitoneally) and transcardially perfused with saline containing 0.5% sodium nitrate and heparin (10 U/mL) and then fixed with 4% PFA in 0.1 M phosphate-buffer (PB, pH 7.2). Dissected brains were post-fixed overnight in buffered 4% PFA at 4 °C and stored in a 30% sucrose solution until they sank. Brains were cryosectioned into 30 μm thick coronal sections in a Cryostat (Microsystems AG, Leica, Wetzlar, Germany) and stored until use at 4℃ in a cryoprotectant (25% ethylene glycol, 25% glycerol, 0.2 M PB, and water). All sections were collected in six separate series and processed for immunostaining.\nFree-floating brain sections were processed with the avidin-biotin peroxidase complex (ABC) complex (Vector Laboratories, Burlingame, CA, USA) method. Briefly, brain sections were incubated with primary rabbit anti-TH antibodies (1:1000; Pel-Freez Biologicals, Rogers, AR, USA) overnight at 4 °C, with biotinylated anti-rabbit IgG (1:400) for 1 h at room temperature, and then with the ABC solution (1:1:200) for 1 h at room temperature. The immunoperoxidase signals of TH was detected by incubating sections with 0.5 mg/ml 3,3′-diaminobenzidine (Sigma, St. Louis, MO, USA) in 0.1 M PB containing 0.003% H2O2. Stained brain sections were mounted on gelatin-coated slides and imaged under a bright-field microscope (Olympus Optical, Tokyo, Japan). TH-positivity in the ST was measured by the optical density of TH-positive fibers at x40 magnification using ImageJ software (National Institutes of Health, Bethesda, MD, USA). TH-positive cells in the SNpc in brain tissue Sect. (5 sections/series) were counted at x100 magnification as previously described. […]"}, "[3]": {"system": "primary cultured astrocytes", "assay": "Intracellular H2O2 (oROS-G sensor) in 6-OHDA-treated astrocytes", "format": "cell-based", "method": "Intracellular H2O2 levels in astrocytes were measured using a genetically encoded oROS-G plasmid, which is highly sensitive and specific for H2O2 with rapid on-and-off kinetics. The plasmid was generously provided by Dr. Andre Berndt and was cloned under the GFAP104 promoter. Transfection into primary cultured hippocampal astrocytes was carried out using the NeoNTM transfection system (Invitrogen). Astrocytes were seeded into 96-well black plates (ibidi, USA) and treated with 6-OHDA (10 µM) in the presence of 1, 10, and 30 µM of Vuti. Fluorescence changes were monitored using a Nikon A1 confocal microscope over a period of 21 h for live cell imaging. The fluorescence intensity for each region of interest (ROI) was analyzed using Nikon software, and the data were normalized to control values for the IC50. The IC50 value for Vuti was determined using GraphPad Prism software."}, "[4]": {"system": "PON2-KD and wild-type C57BL/6 mice", "assay": "MPTP model in wild-type and PON2-knockdown mice", "format": "in vivo, mouse", "method": "as §1, §2\nTo determine forelimb and hindlimb motor coordination and balance, we performed the rotarod test as described previously. Also, the pole test was performed to measure bradykinesia. […] On day 20, the time spent on the rotating bar at 20 rpm, which was defined as the latent period, was recorded. Performance was recorded as 300 s if the latent period exceeded 300 s. […] The time to land down and place four fee on the floor was recorded as the time for locomotion activity (T-LA). […]\nFree-floating brain sections were processed with the avidin-biotin peroxidase complex (ABC) complex (Vector Laboratories, Burlingame, CA, USA) method. […] The immunoperoxidase signals of TH was detected by incubating sections with 0.5 mg/ml 3,3′-diaminobenzidine (Sigma, St. Louis, MO, USA) in 0.1 M PB containing 0.003% H2O2. […] TH-positivity in the ST was measured by the optical density of TH-positive fibers at x40 magnification using ImageJ software (National Institutes of Health, Bethesda, MD, USA). […] (5 sections/series) were counted at x100 magnification as previously described. […]"}, "[5]": {"details": "Vuti 1, 50, 100 mg/kg/day or rasagiline 0.1 mg/kg/day orally for 21 days"}}, "data": [{"compound": "CCOc1ccc(C2COc3c(ccc4c3CCC(C)(C)O4)C2)c(O)c1", "note": "(stereo not shown) [Vuti, Vutiglabridin]", "values": [{"measurement": "efflux ratio (Papp(B→A)/Papp(A→B))", "setting": "[1]", "value": "low efflux ratio"}, {"measurement": "effect on T-LA in the pole test", "setting": "[2]; [5]", "value": "significantly normalized"}, {"measurement": "effect on latency to fall in the rotarod test", "setting": "[2]; [5]", "value": "significantly normalized"}, {"measurement": "number of TH-positive cells in the SNpc and fiber density in the ST", "setting": "[2]; Vuti 1, 50, 100 mg/kg/day oral, p < 0.001 vs. control, levels comparable to rasagiline", "value": "dose-dependently increased"}, {"measurement": "maximum efficacy dose", "setting": "[2]; no difference in neuroprotection between 50 and 100 mg/kg", "value": 50, "unit": "mg/kg"}, {"measurement": "ROS levels in 6-OHDA-treated astrocytes", "setting": "[3]; 30 µM Vuti", "value": "significantly reduced ROS levels"}, {"measurement": "IC50", "setting": "[3]; Astrocyte, 6-OHDA 10 µM treated primary cultured astrocytes, Vuti 1, 10, 30 µM, read-out: normalized IC50 (ROS, oROS-G sensor imaging)", "value": 21, "unit": "µM"}, {"measurement": "neuroprotective effects in PON2-KD mice", "setting": "[4]; PON2-KD mice, MPTP, Vuti 50 mg/kg oral for three weeks", "value": "absent"}, {"measurement": "motor behavior, dopaminergic neuronal cell count and fiber density without MPTP", "setting": "[4]; non-MPTP-injected wild-type mice, 50 mg/kg Vuti, vs vehicle-only", "value": "no changes"}, {"measurement": "MPTP-induced damage to motor behaviors and dopaminergic neurons in wild-type mice", "setting": "[4]; wild-type mice, MPTP, Vuti 50 mg/kg for three weeks", "value": "significantly attenuated"}]}]}
